Read-outs that look alike come from different tables or passages of the source.
Key:
[1] = parent drug with nitrite; ref Ozhan and Alpertunga, 2003; cited from earlier work
[2] = tested on: Salmonella typhimurium TA100; assay: Preincubation Ames test, strain TA100; format: cell-based; conditions: strain TA100; for Effectiveness of time of preincubation for most effective S9: 30 vs 60 min; for Effectiveness of hamster vs. rat S9s for each positive strain: H = hamster liver S9, R = rat liver S9
[3] = published by FDA as of September 4, 2024, ref FDA, 2024a; cited from earlier work
[4] = tested on: Salmonella typhimurium TA1535; assay: Preincubation Ames test, strain TA1535; format: cell-based; conditions: for Effectiveness of time of preincubation for most effective S9 / More effective %S9 in S9 mix of more effective S9 (H or R) / Effectiveness of hamster vs. rat S9s for each positive strain: strain TA1535; for Effectiveness of time of preincubation for most effective S9: 30 vs 60 min; for More effective %S9 in S9 mix of more effective S9 (H or R): 10% vs 30% S9 in the S9 mix; for Effectiveness of hamster vs. rat S9s for each positive strain: H = hamster liver S9, R = rat liver S9; for Ames response when tested as an aqueous suspension: 60 min preincubation, TA1535; for Mutagenic response in TA1535: any activation condition and preincubation time
[5] = tested on: Salmonella typhimurium TA98; assay: Preincubation Ames test, strain TA98; format: cell-based; conditions: strain TA98; for Effectiveness of time of preincubation for most effective S9: 30 vs 60 min
[6] = tested on: Salmonella typhimurium TA1537; assay: Preincubation Ames test, strain TA1537; conditions: for Effectiveness of time of preincubation for most effective S9: 30 vs 60 min
[7] = tested on: E. coli WP2 uvrA (pKM101); assay: Preincubation Ames test, strain WP2 uvrA; format: cell-based, Escherichia coli; conditions: for Effectiveness of time of preincubation for most effective S9: strain WP2 uvrA (pKM101), 30 vs 60 min; for Mutagenic response in WP2 uvrA (pKM101): any activation condition and preincubation time
[8] = PC1 most potent, PC5 least potent; ref FDA, 2024a; cited from earlier work
[9] = tested on: Salmonella typhimurium tester strains TA98, TA100, TA1535, and TA1537, and Escherichia coli strain WP2 uvrA (pKM101); assay: Preincubation Ames test, five tester strains; format: cell-based; conditions: for Effect of length of preincubation on positive responses: 30 min vs 60 min, over all strains
Ames tester strains = conditions: cited from earlier work
[10] = cited from earlier work
[11] = ref Wogan et al., 1975, cited from earlier work
[12] = tested on: CHO, V79, L5178Y/Tk+/−, TK6, HepaRG cells; conditions: cited from earlier work
Drosophila = conditions: ref Vogel and Nivard, 1993; cited from earlier work
[13] = ref IARC (https://monographs.iarc.who.int/agents-classified-by-the-iarc/); cited from earlier work
[14] = ref as given in Table 2 Notes (Kerklaan et al., 1981; Zeiger et al., 1972); cited from earlier work
yeast = conditions: cited from earlier work
[15] = in vivo; cited from earlier work
[16] = published/posted results, ref representative Ames references of Table 2
[17] = species as in value, ref as given in Table 2 Notes
[18] = cell lines as named in the value, ref as given in Table 2 Notes
[19] = listed as N-nitroso-methylphenylamine

CNCCC(Oc1ccc(C(F)(F)F)cc1)c1ccccc1 (centres unmarked) [Fluoxetine]
Genotoxicity under nitrosating conditions [1]: genotoxic under nitrosating conditions

O=NN1CC2CC(C1)c1cc3nccnc3cc12 [NDSRI-15, 8-Nitroso-7,8,9, 10-tetrahydro-6H-6, 10-methanoazepino[4,5-g]quinoxaline]
Effectiveness of time of preincubation for most effective S9 [2]: 60min = 30min | Effectiveness of hamster vs. rat S9s for each positive strain [2]: H only | AI limit [3]: 400 ng/day | Effectiveness of time of preincubation for most effective S9 [4]: 60min ≥30min | Effectiveness of time of preincubation for most effective S9 [5]: 60min ≥30min | Effectiveness of time of preincubation for most effective S9 ([6]; strain TA1537): 60min ≥30min | Effectiveness of time of preincubation for most effective S9 [7]: 60min = 30min | CPCA Potency Category (PC) [8]: PC3 | Effect of length of preincubation on positive responses [9]: benefited from a preincubation of 60 min compared with 30 min

CN(CCC(Oc1ccc(C(F)(F)F)cc1)c1ccccc1)N=O (centres unmarked) [NDSRI-22, N-Methyl-N-[3-phenyl-3-[4-(trifluoromethyl)phenoxy]propyl]nitrous amide]
More effective %S9 in S9 mix of more effective S9 (H or R) ([2]; 10% vs 30% S9 in the S9 mix): 30% only | Effectiveness of time of preincubation for most effective S9 [2]: 30min only | Effectiveness of hamster vs. rat S9s for each positive strain [2]: H only | Ames response (all S9-mediated except where noted) (Ames tester strains): Positive | More effective %S9 in S9 mix of more effective S9 (H or R) [4]: 30% only | Effectiveness of time of preincubation for most effective S9 [4]: 60min = 30min | Effectiveness of hamster vs. rat S9s for each positive strain [4]: H only | Mutagenicity in TGR assay ([10]; in vivo): mutagenic in rat TGR assay | More effective %S9 in S9 mix of more effective S9 (H or R) ([5]; 10% vs 30% S9 in the S9 mix): 30% only | Effectiveness of time of preincubation for most effective S9 [5]: 30min only | Effectiveness of hamster vs. rat S9s for each positive strain ([5]; H = hamster liver S9, R = rat liver S9): H only | Effectiveness of time of preincubation for most effective S9 [7]: 30min >60min | Effect of length of preincubation on positive responses ([9]; listed as N-nitroso-fluoxetine): greater mutagenic responses with 30-min preincubations than with 60-min preincubations

Nc1nc2ncc(CN(N=O)c3ccc(C(=O)NC(CCC(=O)O)C(=O)O)cc3)nc2c(=O)[nH]1 (centres unmarked) [NDSRI-28, 2-[[4-[(2-Amino-4-oxo-3 H-pteridin-6-yl)methyl-nitrosoamino)benzoyl]amino]pentanedioic acid]
Ames response (all S9-mediated except where noted) (Ames tester strains; [16]): Positive | AI limit [3]: 1500 ng/day | Ames response when tested as an aqueous suspension [4]: d Weakly positive/equivocal when tested as an aqueous suspension: see text and Supplementary Material. | Ames response when tested as an aqueous suspension ([4]; listed as N-nitroso-folic acid): equivocal or weakly positive | Lung tumors in neonatal mouse cancer bioassay [11]: Weak positive for lung tumors in neonatal mouse assay ([Wogan et al., 1975]) | Lung tumors in neonatal mouse cancer bioassay ([11]; listed as N-nitroso-folic acid): induced lung tumors | CPCA Potency Category (PC) [8]: PC4

Fc1ccc([C@@H]2CCNC[C@H]2COc2ccc3c(c2)OCO3)cc1 [Paroxetine]
Genotoxicity under nitrosating conditions [1]: Paroxetine genotoxic under nitrosating conditions ([Ozhan and Alpertunga, 2003])

CN(C)N=O [SM-1, N,N-Dimethylnitrous amide]
Effectiveness of time of preincubation for most effective S9 [2]: 60min >30min | Ames response (all S9-mediated except where noted) (Ames tester strains; [16]): Positive; preincubation more sensitive | AI limit [3]: 96 ng/day | Effectiveness of time of preincubation for most effective S9 [4]: 60min >30min | Mutagenicity in TGR assay [10, 17]: Mutagenic in mouse and rat TGR | Mutagenicity/genotoxicity in mammalian cells in vitro [12, 18]: mutagenic/genotoxic in CHO, V79, L5178Y/Tk^+/−, HepaRG cells | Recombination in Drosophila (Drosophila): recombinogen in Drosophila | IARC classification [13]: Group 2A | Effectiveness of time of preincubation for most effective S9 [7]: 60min = 30min | Effect of length of preincubation on positive responses ([9]; listed as NDMA): benefited from a preincubation of 60 min compared with 30 min | Mutagenicity in host-mediated assay [14]: Mutagenic

CCN(CC)N=O [SM-2, N,N-Diethylnitrous amide]
Ames response (all S9-mediated except where noted) (Ames tester strains; [16]): Positive; preincubation more sensitive | AI limit [3]: 26.5 ng/day | Mutagenicity in TGR assay [10, 17]: Mutagenic in rat and mouse TGR, error-corrected sequencing | Mutagenicity/genotoxicity in mammalian cells in vitro [12, 18]: mutagenic/genotoxic in CHO, L5178Y/Tk^+/−, V79, TK6, HepaRG cells | Recombination in Drosophila (Drosophila): recombinogen in Drosophila | Mutagenicity in host-mediated assay [14]: Mutagenic

CN(N=O)c1ccccc1 [SM-6, N-Methyl-N-phenylnitrous amide]
Mutagenic response in TA1535 [4, 19]: negative | Mutagenic response in TA1535 ([4]; listed as NMPA): not positive | Mutagenicity/genotoxicity in yeast (yeast): Mutagenic/genotoxic in yeast, TK6, HepaRG cells | Mutagenicity/genotoxicity in mammalian cells in vitro [12]: Mutagenic/genotoxic in yeast, TK6, HepaRG cells | Mutagenic response in TA1537 ([6]; any activation condition and preincubation time, listed as N-nitroso-methylphenylamine): positive | Effectiveness of time of preincubation for most effective S9 ([6]; strain TA1537): 60min = 30min | Effectiveness of hamster vs. rat S9s for each positive strain ([6]; strain TA1537, H = hamster liver S9, R = rat liver S9): H only | Mutagenic response in WP2 uvrA (pKM101) [7, 19]: positive | Mutagenic response in WP2 uvrA (pKM101) ([7]; listed as NMPA): mutagenic | Effectiveness of time of preincubation for most effective S9 [7]: 60min = 30min

CN(CCCC(=O)O)N=O [SM-7, 4-[Methyl(nitroso)amino] butanoic acid]
AI limit [3]: 1500 ng/day | Mutagenicity/genotoxicity in yeast (yeast; ref Larimer et al., 1980, Mehta and Von Borstel, 1984): Mutagenic/genotoxic in yeast, TK6, HepaRG cells ([Mehta and Von Borstel, 1984]; [Li et al., 2022]; [Seo et al., 2023]) | Mutagenicity/genotoxicity in mammalian cells in vitro [12, 18]: Mutagenic/genotoxic in yeast, TK6, HepaRG cells ([Mehta and Von Borstel, 1984]; [Li et al., 2022]; [Seo et al., 2023]) | CPCA Potency Category (PC) [8]: PC4

CCCCN(CCCC)N=O [SM-9, N,N-Dibutylnitrous amide]
Effectiveness of time of preincubation for most effective S9 [2]: 30min ≥60min | Ames response (all S9-mediated except where noted) (Ames tester strains; [16]): Positive | Effectiveness of time of preincubation for most effective S9 [4]: 60min = 30min | IARC classification [13]: Group 2B | Effectiveness of time of preincubation for most effective S9 [7]: 60min ≥30min

O=NN(c1ccccc1)c1ccccc1 [SM-11, N,N-Diphenylnitrous amide]
IARC classification [13]: Group 3

CCOC(CN(CC(OCC)OCC)N=O)OCC [SM-12, N,N-Bis(2,2-diethoxyethyl)nitrous amide]
Mutagenic response in TA1535 [4]: only positive strain | More effective %S9 in S9 mix of more effective S9 (H or R) [4]: 30% only | Effectiveness of time of preincubation for most effective S9 [4]: 60min = 30min | Effectiveness of hamster vs. rat S9s for each positive strain [4]: H only | Specificity for G:C or A:T target tester strains ([9]; G:C target: TA98, TA100, TA1535, TA1537, A:T target: WP2 uvrA (pKM101)): positive only in G:C detecting strains | Carcinogenicity in rats [15]: noncarcinogenic in rats

— publication PMC12395388 (Regulatory toxicology and pharmacology : RTP, 2024)
